Results taken from paper PMC8624133, “10th Trends in Medical Mycology Held on 8 to 11 October 2021, Aberdeen, Scotland, Organized by the European Confederation of Medical Mycology (ECMM)” (Journal of Fungi, 2021).
Converted amounts (≈) assume the structure as drawn.

How the values were obtained:
Rhizopus arrhizus = assay: E test; type: cell-based
eumycetoma = settings: in vivo; cited from earlier work
Description: Mycetoma: Mycetoma is a chronic, progressive, implantation inflammatory disease characterised by severe and stigmatising deformities, disability, and high morbidity. The disease is caused by fungi (eumycetoma) and several Actinomycetales members (actinomycetoma). Its estimative global burden is 9000 cases. There are no robust epidemiological studies on mycetoma in SA, but it is tconsidered the third most prevalent endemic IM in SA, especially among low socioeconomic adult males living in rural areas from Argentina, Brazil, Colombia and Venezuela, where the principal agents are Madurella spp. a ...

[1] = system: clinical dermatophyte isolates; assay: Inhibition of dermatophyte biofilm formation; type: cell-based
Method: Materials and Methods: The study population consisted of 50 dermatophyte isolates that were collected from 2019 to 2020 from patients referred to the two mycology laboratory of Shiraz, Iran. The isolates were identified by ITS gene region sequencing. The suspension (equivalent to 0.5 McFarland) of the isolates was used to evaluate the ability of the isolates to form biofilms and also the effect of itraconazole, terbinafine and griseofulvin at concentrations of 2–32 μg/mL on inhibiting biofilm formation. Two optical microscope and a scanning electron microscope were used to study the microscopic structure of biofilms formed on the surface of 96-well plate wells.

Trichophyton spp. = assay: Agar-based screening method; type: cell-based; settings: 0.5 McF, 5 days, 30 °C
Method: Inter-experimental variation was evaluated by testing 10 isolates on three different days. Single-centre validation: After determining the optimal conditions for the agar screening method, 112 molecularly identified Trichophyton spp. clinical isolates were tested.

Candida auris isolates = assay: microbe, parasite or virus in culture; type: cell-based; settings: Candidozyma auris; […]; IQR given; read-out: median MIC
C. tropicalis = type: cell-based, Candida tropicalis; settings: all successive strains
[2] = system: Cryptococcus bacillisporus (AFLP5/VGIII); assay: E-test method; type: cell-based
[3] = system: Candida albicans and C. glabrata; type: cell-based, Candida spp.; settings: 20 women with RVVC
[4] = system: environmental yeasts from a lagoon; assay: organism not typed; type: cell-based
[5] = system: CgCDR1, CgCDR2 and CgSNQ2 genes; assay: Real-time PCR of ATP-binding cassette transporter genes; type: cell-based, Candida glabrata
[6] = system: C. parapsilosis SC isolates; assay: Candidemia survey Greece, susceptibility per hospital protocol; type: cell-based, Candida parapsilosis species complex
[7] = system: C. albicans SC5314 experimental population; assay: Experimental evolution under fluconazole, azole susceptibility; type: cell-based; settings: Candida albicans
Scedosporium apiospermum = assay: EUCAST reference method MIC; type: cell-based
Method: Case presentation: A patient presented with a bursitis of their left elbow. Six months before they were treated with lymphodepleting chemotherapy directly followed by B-cell associated CD19-specific chimeric antigen receptor (CAR) T cell therapy for recurrence of follicular lymphoma. They were considered immunocompromised, with total neutrophils and lymphocytes slightly below normal levels, absent B-cells, and a treatment associated persistent hypogammaglobulinaemia. Four weeks before presentation at our hospital they contacted their GP because of swelling and pain of their left elbow. Their GP aspirated fluid from their elbow, injected steroids and started antibiotics, but now there was recurrence of swelling and pain. Bursitis without arthritis was diagnosed by a rheumatologist and the bursa was surgically opened and drained, relieving pus. The patient was started on oral flucloxacillin and sent home. Two days later the culture of the pus from the bursa grew white colonies on a Sabouraud dextrose agar plate, showing long conidophores with large oval conidia on microscopy. […] Over the next few weeks the bursitis symptoms diminished. […] Voriconazole is considered first line treatment for Scedosporium infections. […] Eight weeks later there were no signs of bursitis and posaconazole was discontinued.

Asp. niger = assay: Triazole resistance agar screening, four-well plate; settings: RPMI agar, 1 µg/mL, 14 isolates
Method: All the isolates were identified phenotypically. […] Fungal spores were suspended in normal saline (0.85%) and adjusted to 0.5 McFarland and 50 μL was plated in each well. […] Plates were incubated at 35–37 °C for 72 h in ambient air. The presence or absence of growth was observed visually at 24 h, 48 h, and 72 h.

In the case of `C[C@@H]1[C@H](O)[C@@H](C)/C=C/C=C/C=C/C=C/C=C/C=C/C=C/[C@H](O[C@@H]2O[C@H](C)[C@@H](O)[C@H](N)[C@@H]2O)C[C@@H]2O[C@](O)(C[C@@H](O)C[C@@H](O)[C@H](O)CC[C@@H](O)C[C@@H](O)CC(=O)O[C@H]1C)C[C@H](O)[C@H]2C(=O)O` [amphotericin B], the MIC (Rhizopus arrhizus) is reported as > 32 µg/mL.

For `CCC(C)n1ncn(-c2ccc(N3CCN(c4ccc(OCC5COC(Cn6cncn6)(c6ccc(Cl)cc6Cl)O5)cc4)CC3)cc2)c1=O` (stereo not shown) [itraconazole], the Cure rate (eumycetoma) is listed as 25–35%, the IC50 ([1]; inhibition of biofilm formation, read-out: mean concentrations of IC50) is listed as 3.78 µg/mL (≈ 5.36 µM) and the “samples with IC50 in concentration <2” value ([1]; tested at 2–32 μg/mL) is listed as 70%. The “optimal agar concentration preventing growth of WT isolates” value (Trichophyton spp.) was 1 mg/L.

With `OC(Cn1cncn1)(Cn1cncn1)c1ccc(F)cc1F` [fluconazole] the MIC (Candida auris isolates) was 48 µg/mL (≈ 157 µM), the susceptibility category (C. tropicalis) was “susceptible” and the antifungal susceptibility [2] was “low response”. For the same compound, the “in vitro resistant pathogens” value [3] was 45%, the “isolates classified as resistant-like” value ([4]; number of 71 yeasts, MIC at or above Candida breakpoint) was “Fifty-five” and the MIC ([4]; range, read-out: MIC of resistant-like isolates) was 64 to 2050 µg/mL. The “expression of CgCDR1, CgCDR2 and CgSNQ2 genes” value [5] was “over-expressed”, the Resistance [6] was 20% and the MIC ([7]; SC5314) was 0.5 µg/mL (≈ 1.63 µM). For the same compound, the MIC ([7]; SC5314, 168 h) was 8 µg/mL (≈ 26.1 µM).

In the case of `C[C@@H](c1ncncc1F)[C@](O)(Cn1cncn1)c1ccc(F)cc1F` [voriconazole], the MIC (Scedosporium apiospermum; first isolate from bursa pus) is reported as 0.5 µg/mL (≈ 1.43 µM), the MIC (Scedosporium apiospermum; isolate two months later, under posaconazole) is reported as 1 µg/mL (≈ 2.86 µM) and the “isolates with growth only in voriconazole well, n (%)” value (Asp. niger; 48 h) is reported as 0. The “isolates with growth only in voriconazole well, n (%)” value (Asp. niger; 72 h) was 2 (14.28).
